In patent US10323020B2, “Substituted piperidinyl tetrahydroquinolines” (Bayer Pharma Aktiengesellschaft, priority 2013, dated 2019):

How the values were obtained:
[1] = biological target: recombinant human α2C receptor (Homo sapiens (Human), UniProt P18825); assay: Antagonism against the adrenoreceptor α2C (luminescence, noradrenaline-stimulated CHO cells); assay type: cell-based; settings: noradrenaline 20 nM; CHO cell line with Gαqi3 and mtOb
Procedure: Antagonism against the adrenoreceptor α1A was tested using a recombinant human α1A receptor CHO cell line which additionally also recombinantly expresses mtAeq (mitochondrial aequorin). Antagonism against the adrenoreceptor α2A was tested using a recombinant human α2A-Gα16 receptor fusion protein CHO cell line (PerkinElmer Life Sciences) which additionally also recombinantly expresses mtAeq. Antagonism against the adrenoreceptor α2B was tested using a recombinant human α2B receptor CHO cell line (PerkinElmer Life Sciences) which additionally also recombinantly expresses mtAeq. Antagonism against the adrenoreceptor α2C was tested using a recombinant human α2C receptor CHO cell line which additionally also recombinantly expresses a chimaric G protein (Gαqi3) and mtOb (mitochondrial obelin).
The cells were cultivated at 37° C. and 5% CO2 in Dulbecco's modified Eagle's Medium/NUT mix F12 with L-glutamine which additionally contains 10% (v/v) inactivated foetal calf serum, 1 mM sodium pyruvate, 0.9 mM sodium bicarbonate, 50 U/ml penicillin, 50 μg/ml streptomycin, 2.5 μg/ml amphotericin B and 1 mg/ml Geneticin. The cells were passaged with enzyme-free Hank's-based cell dissociation buffer. All cell culture reagents used were from Invitrogen (Carlsbad, USA).
Luminescence measurements were carried out on white 384-well microtitre plates. 2000 cells/well were plated in a volume of 25 μl and cultivated for one day at 30° C. and 5% CO2 in cell culture medium with coelenterazine (α2A and α2B: 5 μg/ml; α1a/c and α2C: 2.5 μg/ml). Serial dilutions of the test substances (10 μl) were added to the cells. After 5 minutes, noradrenaline was added to the cells (35 μl; final concentrations: 20 nM (α1a/c and α2C) or 200 nM (α2A and α2B)), and the emitted light was measured for 50 seconds using a CCD (charge-coupled device) camera (Hamamatsu Corporation, Shizuoka, Japan) in a light-tight box. The test substances were tested up to a maximum concentration of 10 μM. The IC50 values were calculated from the appropriate dose-response curves.

[2] = test system: diabetic ZDF fa/fa animals; assay: Measurement of blood flow and blood pressure in rats (femoral flow), ZDF rat; assay type: in vivo; settings: for Change in the femoral flow in %: ZDF rat (n = 3), steady state 32 min, mean
Procedure: (§1) Wistar rats (Hsd Cpb:Wu) of a weight of 250-350 g or ZDF rats (ZDF/Crl-Lepr fa/fa) of a weight of 330-520 g were anesthetized using 2.5% isoflurane in an oxygen/laughing gas mixture (40:60). To determine the blood flow in the carotid artery and the femoral artery, the anesthetized rat was brought into a supine position, and the left carotid artery and the right femoral artery are then carefully exposed. Blood flow was measured by placing flow probes (Transonic Flowprobe) at the vessels. By introducing a PE50 artery catheter into the left femoral artery, blood pressure and heart rate were determined (Transducer Ref. 5203660: from Braun CH). The substances were administered as a bole injection or a continuous infusion via a venous catheter in the left femoral vein.
(§2) Following the preparation of the animals, there was a 5 min baseline interval. Infusion of the AR alpha2C receptor antagonist was then started. In the steady state (32 min after the start of the experiment), the femoral flow was determined in relation (% difference) to the initial flow.
(§3) At the same time, no changes in blood pressure and heart rate were measured. Placebo: 10% ethanol/40% PEG400/50% NaCl.

Wistar rat = assay: Measurement of blood flow and blood pressure in rats (femoral flow), Wistar rat; assay type: in vivo
Procedure: as §1, §2, §3

[3] = test system: diabetic (ZDFfa/fa) and healthy rats (Wistar); assay: Assay of perfusion-enhancing substances (microcirculation), laser doppler at the paw; assay type: in vivo, rat; settings: for factor by which microcirculation is improved at the MED compared to placebo: single oral dose at MED, 30 min after administration; for MED microcirculation / MED skin temperature: single oral dose; for MED microcirculation: measured 30 min after administration, significant vs placebo; for MED skin temperature: significant increase of skin temperature (ttest)
Description: In diabetic (ZDFfa/fa) and healthy rats (Wistar), a laser doppler probe was fastened under anaesthesia conditions (isoflurane anaesthesia) at the sole of the paw for measuring cutaneous microcirculation. The test animals were once treated orally with the test substances. During the experiment, microperfusion and temperature of the lower extremities were documented continuously. Here, a temperature-sensitive laser doppler probe (Periflux, O2C) was fastened with adhesive to the paws of the animals, allowing the measurement of microperfusion and skin temperature. The microcirculation measurement values were measured on both paws 30 min after oral administration of the test substance. […] Also stated is the MED for the significant increase of skin temperature (ttest).
Microcirculation data for adrenoreceptor α2C receptor antagonist of the compound of Example 8 and for the comparative substance ORM12741, an AR α2c receptor antagonist from Orion, are shown in Table 3: […]

[4] = test system: conscious female Wistar rats; assay: Radiotelemetric measurement of blood pressure and heart rate of conscious rats; assay type: in vivo, rat
Description: A commercially available telemetry system from Data Sciences International DSI, USA, was employed for the measurements on conscious rats described below. The system consists of 3 main components: (1) implantable transmitters (Physiotel® telemetry transmitter), (2) receivers (Physiotel® receiver), which are linked via a multiplexer (DSI Data Exchange Matrix) to a (3) data acquisition computer. The telemetry system makes it possible to continuously record blood pressure, heart rate and body motion of conscious animals in their usual habitat.
The studies were conducted on adult female Wistar rats with a body weight of >200 g. After transmitter implantation, the experimental animals were housed singly in type III Makrolon® cages. They had free access to standard feed and water. The day/night rhythm in the test laboratory was set by changing the illumination of the room.
The telemetry transmitters used (PA-C40, DSI) were surgically implanted under aseptic conditions in the experimental animals at least 14 days before the first experimental use.
For the implantation, the fasted animals were anaesthetized with isoflurane (IsoFlo®, Abbott, initiation 5%, maintenance 2%) and shaved and disinfected over a large area of their abdomens. […]
Each of the instrumented rats living in the system was assigned a separate receiving antenna (RPC-1 Receiver, DSI). […] The signals emitted were detected online by a data acquisition system (Dataquest™ A.R.T. for Windows, DSI) and processed accordingly.
In the standard procedure, the following were measured for 10-second periods in each case: (1) systolic blood pressure (SBP), (2) diastolic blood pressure (DBP), (3) mean arterial pressure (MAP) and (4) heart rate (HR) and (5) activity (ACT). These parameters were measured over 24 hours after administration.
The acquisition of measurements was repeated under computer control at 5-minute intervals. The source data obtained as absolute values were corrected in the diagram with the currently measured barometric pressure (Ambient Pressure Reference Monitor, APR-1, DSI). […]

[5] = during infusion, up to 1 μg/kg/min

Chain of recombinant human α2C receptor (P18825 whole entry, the tested form may be a part): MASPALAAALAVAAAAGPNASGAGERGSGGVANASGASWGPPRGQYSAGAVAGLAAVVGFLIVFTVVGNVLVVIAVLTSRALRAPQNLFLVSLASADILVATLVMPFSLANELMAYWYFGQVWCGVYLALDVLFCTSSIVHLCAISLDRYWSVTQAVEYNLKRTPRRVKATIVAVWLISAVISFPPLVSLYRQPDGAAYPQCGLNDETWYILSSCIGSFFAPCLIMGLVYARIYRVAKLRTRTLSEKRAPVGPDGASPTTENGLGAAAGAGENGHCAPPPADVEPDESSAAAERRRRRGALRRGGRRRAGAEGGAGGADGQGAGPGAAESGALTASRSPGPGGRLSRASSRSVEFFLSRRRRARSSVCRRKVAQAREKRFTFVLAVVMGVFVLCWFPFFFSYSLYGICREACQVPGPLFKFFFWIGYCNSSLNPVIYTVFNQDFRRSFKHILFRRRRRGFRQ

SMILES | IC50 [1] | Change in the femoral flow in % ([2]; 0.1 μg/kg/min infusion) | Change in the femoral flow in % ([2]; 0.3 μg/kg/min infusion) | Change in the femoral flow in % ([2]; 1 μg/kg/min infusion) | femoral flow (in words) ([2]; diabetic ZDF fa/fa animals, doses of 0.1, 0.3 and 1 μg/kg) | Change in the femoral flow in % (Wistar rat; Wistar rat (n = 7), 1 μg/kg/min infusion, steady state 32 min, mean) | femoral flow (in words) (Wistar rat; Wistar rat, up to a dose of 1 μg/kg/min) | blood pressure (in words) (Wistar rat; [5]) | heart rate (in words) (Wistar rat; [5]) | factor by which microcirculation is improved at the MED compared to placebo [3] | MED microcirculation [3] | MED skin temperature [3] | heart rate ([4]; oral 3 and 10 mg/kg) | haemodynamic effects (blood pressure, heart rate) ([4]; up to an oral dose of 1 mg/kg) | blood pressure ([4]; oral 10 mg/kg)
O=C(c1cnc(N2CC3(COC3)C2)nc1)N1CCC(N2CCc3ccccc3C2)CC1 [Example 8, [4-(3,4-Dihydroisoquinolin-2(1H)-yl)piperidin-1-yl][2-(2-oxa-6-azaspiro[3.3]hept-6-yl)pyrimidin-5-yl]methanone] | 0.023 µM | 12.3% | 65.0% | 131.3% | dose-dependent increase in femoral flow | −6.7 (n = 7) % | no increase in femoral flow | no changes | no changes | 1.8 x | 0.03 mg/kg | 0.01 mg/kg | slight transient increase in the heart rate | no haemodynamic effects | –
COC[C@@]1(C)CCCN2CCc3c(oc4ccccc34)[C@@H]21 [ORM-12741, reference compound] | – | – | – | – | – | – | – | – | – | 1.9 x | 0.1 mg/kg | 0.01 mg/kg | – | – | additional reduction in blood pressure
